From BigSolDB 2.1

## COc1c(N2CCNC(C)C2)c(F)cc2c(=O)c(C(=O)O)cn(C3CC3)c12 (configuration not stated)
In 1,4-dioxane, 288.15 K
  solubility (mole fraction): 0.000952
In 1,4-dioxane, 293.15 K
  solubility (mole fraction): 0.00111
In 1,4-dioxane, 298.15 K
  solubility (mole fraction): 0.00129
In 1,4-dioxane, 303.15 K
  solubility (mole fraction): 0.00149
In 1,4-dioxane, 308.15 K
  solubility (mole fraction): 0.00172
In 1,4-dioxane, 313.15 K
  solubility (mole fraction): 0.00198
In 1,4-dioxane, 318.15 K
  solubility (mole fraction): 0.00228
In 2-butanone, 273.15 K
  solubility (mole fraction): 0.00158
In 2-butanone, 278.15 K
  solubility (mole fraction): 0.00186
In 2-butanone, 283.15 K
  solubility (mole fraction): 0.00219
In 2-butanone, 288.15 K
  solubility (mole fraction): 0.00257
In 2-butanone, 293.15 K
  solubility (mole fraction): 0.003
In 2-butanone, 298.15 K
  solubility (mole fraction): 0.00349
In 2-butanone, 303.15 K
  solubility (mole fraction): 0.00405
In 2-butanone, 308.15 K
  solubility (mole fraction): 0.00468
In 2-butanone, 313.15 K
  solubility (mole fraction): 0.00539
In 2-butanone, 318.15 K
  solubility (mole fraction): 0.0062
In DMF, 273.15 K
  solubility (mole fraction): 0.00259
In DMF, 278.15 K
  solubility (mole fraction): 0.00305
In DMF, 283.15 K
  solubility (mole fraction): 0.00359
In DMF, 288.15 K
  solubility (mole fraction): 0.00417
In DMF, 293.15 K
  solubility (mole fraction): 0.00486
In DMF, 298.15 K
  solubility (mole fraction): 0.00566
In DMF, 303.15 K
  solubility (mole fraction): 0.00653
In DMF, 308.15 K
  solubility (mole fraction): 0.00751
In DMF, 313.15 K
  solubility (mole fraction): 0.00864
In DMF, 318.15 K
  solubility (mole fraction): 0.00989
In acetone, 273.15 K
  solubility (mole fraction): 0.00081
In acetone, 278.15 K
  solubility (mole fraction): 0.000942
In acetone, 283.15 K
  solubility (mole fraction): 0.00111
In acetone, 288.15 K
  solubility (mole fraction): 0.0013
In acetone, 293.15 K
  solubility (mole fraction): 0.00152
In acetone, 298.15 K
  solubility (mole fraction): 0.00177
In acetone, 303.15 K
  solubility (mole fraction): 0.00204
In acetone, 308.15 K
  solubility (mole fraction): 0.00235
In acetone, 313.15 K
  solubility (mole fraction): 0.0027
In acetone, 318.15 K
  solubility (mole fraction): 0.00309
In acetonitrile, 273.15 K
  solubility (mole fraction): 0.0013
In acetonitrile, 278.15 K
  solubility (mole fraction): 0.0015
In acetonitrile, 283.15 K
  solubility (mole fraction): 0.00177
In acetonitrile, 288.15 K
  solubility (mole fraction): 0.00208
In acetonitrile, 293.15 K
  solubility (mole fraction): 0.00244
In acetonitrile, 298.15 K
  solubility (mole fraction): 0.00281
In acetonitrile, 303.15 K
  solubility (mole fraction): 0.00322
In acetonitrile, 308.15 K
  solubility (mole fraction): 0.0037
In acetonitrile, 313.15 K
  solubility (mole fraction): 0.00424
In acetonitrile, 318.15 K
  solubility (mole fraction): 0.00485
In ethanol, 273.15 K
  solubility (mole fraction): 0.000261
In ethanol, 278.15 K
  solubility (mole fraction): 0.000326
In ethanol, 283.15 K
  solubility (mole fraction): 0.000403
In ethanol, 288.15 K
  solubility (mole fraction): 0.000489
In ethanol, 293.15 K
  solubility (mole fraction): 0.000585
In ethanol, 298.15 K
  solubility (mole fraction): 0.000698
In ethanol, 303.15 K
  solubility (mole fraction): 0.000829
In ethanol, 308.15 K
  solubility (mole fraction): 0.000984
In ethanol, 313.15 K
  solubility (mole fraction): 0.00116
In ethanol, 318.15 K
  solubility (mole fraction): 0.00136
In ethyl acetate, 273.15 K
  solubility (mole fraction): 0.00323
In ethyl acetate, 278.15 K
  solubility (mole fraction): 0.00378
In ethyl acetate, 283.15 K
  solubility (mole fraction): 0.0044
In ethyl acetate, 288.15 K
  solubility (mole fraction): 0.00509
In ethyl acetate, 293.15 K
  solubility (mole fraction): 0.00588
In ethyl acetate, 298.15 K
  solubility (mole fraction): 0.00679
In ethyl acetate, 303.15 K
  solubility (mole fraction): 0.00778
In ethyl acetate, 308.15 K
  solubility (mole fraction): 0.00893
In ethyl acetate, 313.15 K
  solubility (mole fraction): 0.0102
In ethyl acetate, 318.15 K
  solubility (mole fraction): 0.0117
In isopropanol, 273.15 K
  solubility (mole fraction): 0.000123
In isopropanol, 278.15 K
  solubility (mole fraction): 0.000158
In isopropanol, 283.15 K
  solubility (mole fraction): 0.000204
In isopropanol, 288.15 K
  solubility (mole fraction): 0.000254
In isopropanol, 293.15 K
  solubility (mole fraction): 0.000322
In isopropanol, 298.15 K
  solubility (mole fraction): 0.000401
In isopropanol, 303.15 K
  solubility (mole fraction): 0.000498
In isopropanol, 308.15 K
  solubility (mole fraction): 0.000613
In isopropanol, 313.15 K
  solubility (mole fraction): 0.000751
In isopropanol, 318.15 K
  solubility (mole fraction): 0.000912
In methanol, 273.15 K
  solubility (mole fraction): 0.00019
In methanol, 278.15 K
  solubility (mole fraction): 0.000232
In methanol, 283.15 K
  solubility (mole fraction): 0.000294
In methanol, 288.15 K
  solubility (mole fraction): 0.00036
In methanol, 293.15 K
  solubility (mole fraction): 0.000438
In methanol, 298.15 K
  solubility (mole fraction): 0.000531
In methanol, 303.15 K
  solubility (mole fraction): 0.000637
In methanol, 308.15 K
  solubility (mole fraction): 0.000752
In methanol, 313.15 K
  solubility (mole fraction): 0.000902
In methanol, 318.15 K
  solubility (mole fraction): 0.00107
In n-butanol, 273.15 K
  solubility (mole fraction): 0.00105
In n-butanol, 278.15 K
  solubility (mole fraction): 0.00122
In n-butanol, 283.15 K
  solubility (mole fraction): 0.00143
In n-butanol, 288.15 K
  solubility (mole fraction): 0.00169
In n-butanol, 293.15 K
  solubility (mole fraction): 0.00195
In n-butanol, 298.15 K
  solubility (mole fraction): 0.00225
In n-butanol, 303.15 K
  solubility (mole fraction): 0.0026
In n-butanol, 308.15 K
  solubility (mole fraction): 0.00299
In n-butanol, 313.15 K
  solubility (mole fraction): 0.00344
In n-butanol, 318.15 K
  solubility (mole fraction): 0.00395
In n-propanol, 273.15 K
  solubility (mole fraction): 0.000364
In n-propanol, 278.15 K
  solubility (mole fraction): 0.000445
In n-propanol, 283.15 K
  solubility (mole fraction): 0.000545
In n-propanol, 288.15 K
  solubility (mole fraction): 0.000655
In n-propanol, 293.15 K
  solubility (mole fraction): 0.000778
In n-propanol, 298.15 K
  solubility (mole fraction): 0.000922
In n-propanol, 303.15 K
  solubility (mole fraction): 0.00109
In n-propanol, 308.15 K
  solubility (mole fraction): 0.00127
In n-propanol, 313.15 K
  solubility (mole fraction): 0.00149
In n-propanol, 318.15 K
  solubility (mole fraction): 0.00173
In toluene, 273.15 K
  solubility (mole fraction): 5.9e-05
In toluene, 278.15 K
  solubility (mole fraction): 8.1e-05
In toluene, 283.15 K
  solubility (mole fraction): 0.000109
In toluene, 288.15 K
  solubility (mole fraction): 0.000146
In toluene, 293.15 K
  solubility (mole fraction): 0.000199
In toluene, 298.15 K
  solubility (mole fraction): 0.000261
In toluene, 303.15 K
  solubility (mole fraction): 0.000344
In toluene, 308.15 K
  solubility (mole fraction): 0.000446
In toluene, 313.15 K
  solubility (mole fraction): 0.000577
In toluene, 318.15 K
  solubility (mole fraction): 0.000742
